# Patent publication US4175081A, “5-Substituted thiadiazole ureas” (priority 1977, dated 1979)
# What was measured:
# [1] = test system: Cotton (CT); assay: Pre-emergence herbicide test; assay type: in vivo, Gossypium hirsutum var. DPL smooth leaf; settings: Gossypium hirsutum, 336 h, two weeks after treatment; for pest or weed control at 2241.7 g/ha: 2 lb/acre; for pest or weed control at 4483.4 g/ha: 4 lb/acre
# How it was run: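 Visual injury/control ratings were taken at two weeks post-spray. Pots seeded a day earlier received compound pre-emergence at 8 lbs/acre, or 4 lbs/acre, in a 38 gallon/acre spray volume, and were then held in the greenhouse, watered only from below.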
# [2] = test system: Barnyard grass (BG); assay: Post-emergence herbicide test; assay type: in vivo; settings: Echinochloa crus-galli, 336 h, two weeks after treatment; for pest or weed control at 2241.7 g/ha: 2 lb/acre
# How it was run: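 Greenhouse pot-grown barnyard grass seedlings sprayed post-emergence at 8 lbs active compound per acre (some at 4 lbs/acre) in 38 gallons per acre, then sub-irrigated. Injury or control rated visually two weeks after treatment.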
# [3] = test system: Cotton (CT); assay: Post-emergence herbicide test; assay type: in vivo, Gossypium hirsutum var. DPL smooth leaf; settings: Gossypium hirsutum, post-emergence, 336 h, two weeks after treatment; for pest or weed control at 2241.7 g/ha: 2 lb/acre; for pest or weed control at 4483.4 g/ha: 4 lb/acre
# How it was run: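 This greenhouse post-emergence test measured how well spray treatments controlled cotton. Seedlings of Gossypium hirsutum var. DPL smooth leaf, with expanded cotyledons and a first true leaf 1' in length, were sprayed with 50 ml formulations in a belt-fed spray hood. They were then returned to the greenhouse and watered only by sub-irrigation. Injury was scored visually as % control after two weeks.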
# [4] = test system: Turnip (TP); assay: Post-emergence herbicide test; assay type: in vivo, Brassica sp.; settings: Brassica rapa, post-emergence, 336 h, two weeks after treatment; for pest or weed control at 2241.7 g/ha: 2 lb/acre; for pest or weed control at 4483.4 g/ha: 4 lb/acre
# How it was run: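 A greenhouse post-emergence herbicide test on turnip. Seeds were sown on the surface of potting soil in 3' plastic pots, lightly covered with screened soil and watered from below. Planting was timed so seedlings had 1 or 2 true leaves above the cotyledons at spraying, done in a hood with a fixed nozzle. Control or injury was scored by eye after two weeks.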
# [5] = test system: Amaranth pigweed (PW); assay: Pre-emergence herbicide test; assay type: in vivo, Amaranthus retroflexus; settings: 336 h, two weeks after treatment; for pest or weed control at 4483.4 g/ha: 4 lb/acre
# How it was run: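 Visual injury or control ratings were made at two weeks on pre-emergence pots, sub-irrigated in the greenhouse. Seeds were sown a day before a hood spray delivering 8 lbs/acre (or 4 lbs/acre) of compound in 38 gallons per acre.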
# [6] = test system: Amaranth pigweed (PW); assay: Post-emergence herbicide test; assay type: in vivo, Amaranthus retroflexus; settings: 336 h, two weeks after treatment; for pest or weed control at 4483.4 g/ha: 4 lb/acre
# Protocol: Amaranth pigweed (PW)--Amaranthus retroflexus
# All crop and weed species were planted individually in 3' plastic pots containing potting soil. Four seeds each of corn, cotton, and snapbeans were seeded to a depth equal to the diameter of the seed. All other species were surface seeded and sprinkled with screened soil in an amount sufficient to cover the seed. Immediately after planting, all pots were watered by sub-irrigation in greenhouse trays. Pots for the pre-emergence phase were seeded one day before treatment.
# Planting dates for the post-emergence phase were varied so that all seedlings would reach the desired stage of development simultaneously. The proper stage of seedling development for treatment in the post-emergence phase is as follows:
# Pigweed and turnips: 1 or 2 true leaves above visible cotyledons.
# Compounds were tested at rates of application equivalent to 8 lbs. of actual compound per acre in a spray volume of 38 gallons per acre. Spray hood constants required to deliver the above volume are as follows:
# Formulations for spray applications were prepared in 50 ml volumes with the following three components:
# Formulations for the 4 lbs/acre rate were prepared by adjusting the amount of active ingredient accordingly.
# Spray applications were made in a hood containing a removable belt and fixed spray nozzle. For passage through the spray hood, one pot of each specie (pre-emergence phase) was placed on the rear half of the flat. Treatments were removed to the greenhouse after spraying. Watering during the observation period was done only by sub-irrigation.
# Two weeks after treatment, pre- and post-emergence injury or control was visually rated, and the results were as shown in the following tables. Pre-emergence data are provided in TABLE III and post-emergence data are provided in TABLE IV, for compounds having the formula illustrated in TABLE I. Correspondingly, pre-emergence and post-emergence data, respectively, are set forth in TABLES V AND VI, for compounds having the formula illustrated in TABLE II.
# [7] = test system: Turnip (TP); assay: Pre-emergence herbicide test; assay type: in vivo, Brassica sp.; settings: Brassica rapa, pre-emergence, 336 h, two weeks after treatment; for pest or weed control at 2241.7 g/ha: 2 lb/acre; for pest or weed control at 4483.4 g/ha: 4 lb/acre
# How it was run: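 In this pre-emergence greenhouse test, turnip was seeded on the surface of potting soil in 3' plastic pots, lightly covered with screened soil, and watered from below. One day later the pots were sprayed in a belt-fed spray hood. Watering continued only by sub-irrigation, and percent control was visually scored two weeks after treatment.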
# [8] = test system: Johnson grass (JG); assay: Post-emergence herbicide test; assay type: in vivo, Sorgum helepense; settings: Sorghum halepense, 336 h, two weeks after treatment; for pest or weed control: 2 lb/acre; for pest or weed control at 4483.4 g/ha: 4 lb/acre
# How it was run: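 Visual injury or control scores taken 2 weeks after a post-emergence spray of pot-grown plants. Application was 8 lbs/acre (or 4 lbs/acre) in 38 gal/acre. Plants were held in the greenhouse with sub-irrigation only.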
# [9] = test system: Crabgrass (CG); assay: Pre-emergence herbicide test; assay type: in vivo, Digitaria sanquinalis; settings: Digitaria sanguinalis, pre-emergence, 336 h, two weeks after treatment; for pest or weed control: 2 lb/acre; for pest or weed control at 4483.4 g/ha: 4 lb/acre
# How it was run: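 Crabgrass (Digitaria sanquinalis) was surface seeded in 3' plastic pots of potting soil, covered with screened soil, and watered by sub-irrigation in greenhouse trays. Pots were seeded one day before spraying in a hood with a moving belt and fixed nozzle. Plants stayed in the greenhouse on sub-irrigation, and pre-emergence control was rated visually two weeks after treatment.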
# [10] = test system: Corn (CN); assay: Pre-emergence herbicide test; assay type: in vivo; settings: Zea mays, 336 h, two weeks after treatment; for pest or weed control at 2241.7 g/ha: 2 lb/acre; for pest or weed control at 4483.4 g/ha: 4 lb/acre
# How it was run: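 Visual injury/control ratings were made 2 weeks post-spray on corn pots seeded (4 seeds, seed-diameter depth) the day before treatment. Application was a belt-hood spray of 38 gal/acre delivering 8 lbs active per acre, with a 4 lbs/acre rate also formulated. Watering was by sub-irrigation throughout.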
# [11] = test system: Corn (CN); assay: Post-emergence herbicide test; assay type: in vivo; settings: Zea mays, 336 h, two weeks after treatment; for pest or weed control: 2 lb/acre; for pest or weed control at 4483.4 g/ha: 4 lb/acre
# How it was run: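 Greenhouse seedlings grown in potting soil and sprayed post-emergence at 8 lbs compound/acre (formulations also made for 4 lbs/acre) in 38 gallons/acre spray volume. Watering by sub-irrigation only. Injury or control rated visually two weeks after treatment.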
# [12] = test system: Barnyard grass (BG); assay: Pre-emergence herbicide test; assay type: in vivo; settings: Echinochloa crus-galli, 336 h, two weeks after treatment; for pest or weed control at 2241.7 g/ha: 2 lb/acre; for pest or weed control at 4483.4 g/ha: 4 lb/acre
# How it was run: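 Greenhouse pre-emergence spray test: pots seeded one day before treatment received compound at rates of 8 or 4 lb/acre (38 gal/acre). Visual injury/control scores for Echinochloa crus-galli taken at two weeks, with watering by sub-irrigation only.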
# [13] = test system: Crabgrass (CG); assay: Post-emergence herbicide test; assay type: in vivo, Digitaria sanquinalis; settings: Digitaria sanguinalis, post-emergence, 336 h, two weeks after treatment; for pest or weed control: 2 lb/acre; for pest or weed control at 4483.4 g/ha: 4 lb/acre
# How it was run: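 Crabgrass (Digitaria sanquinalis) was surface seeded individually in 3' plastic pots of potting soil, covered with screened soil, and watered by sub-irrigation in greenhouse trays. Planting was staggered so seedlings reached the target stage together. Post-emergence sprays were applied in a hood with a removable belt and fixed nozzle, and control was visually rated two weeks after treatment.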
# [14] = test system: Bean (BN); assay: Post-emergence herbicide test; assay type: in vivo, Phaseolus vulgaris var. Black Valentine; settings: Phaseolus vulgaris, post-emergence, 336 h, two weeks after treatment; for pest or weed control at 2241.7 g/ha: 2 lb/acre; for pest or weed control at 4483.4 g/ha: 4 lb/acre
# How it was run: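 Bean seedlings (Phaseolus vulgaris var. Black Valentine) were grown in potting soil in 3' pots until the primary leaves expanded. They were then sprayed under a hood with a removable belt and fixed nozzle, using 50 ml formulations. Afterward they were returned to the greenhouse and watered only by sub-irrigation. Percent control was judged visually two weeks after treatment.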
# [15] = test system: Johnson grass (JG); assay: Pre-emergence herbicide test; assay type: in vivo, Sorgum helepense; settings: Sorghum halepense, 336 h, two weeks after treatment; for pest or weed control at 2241.7 g/ha: 2 lb/acre; for pest or weed control at 4483.4 g/ha: 4 lb/acre
# How it was run: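 Visual injury or control rating two weeks post-treatment, after pre-emergence spray of 8 or 4 lbs active per acre (38 gal/acre) onto pots sown the previous day. Greenhouse watering by sub-irrigation only.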
# [16] = test system: Bean (BN); assay: Pre-emergence herbicide test; assay type: in vivo, Phaseolus vulgaris var. Black Valentine; settings: Phaseolus vulgaris, 336 h, two weeks after treatment; for pest or weed control at 2241.7 g/ha: 2 lb/acre; for pest or weed control at 4483.4 g/ha: 4 lb/acre
# How it was run: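 Visual injury/control ratings were taken two weeks post-spray on sub-irrigated Phaseolus vulgaris var. Black Valentine. Pots were sown a day before treatment. Pre-emergence spray delivered 8 lbs actual compound per acre (or 4 lbs/acre) at 38 gallons per acre.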
SMILES,pest or weed control at 2241.7 g/ha [1] [%],pest or weed control at 4483.4 g/ha [1] [%],pest or weed control at 2241.7 g/ha [2] [%],pest or weed control at 2241.7 g/ha [3] [%],pest or weed control at 4483.4 g/ha [3] [%],pest or weed control at 2241.7 g/ha [4] [%],pest or weed control at 4483.4 g/ha [4] [%],pest or weed control at 4483.4 g/ha [5] [%],pest or weed control at 4483.4 g/ha [6] [%],pest or weed control at 2241.7 g/ha [7] [%],pest or weed control at 4483.4 g/ha [7] [%],pest or weed control [8] [%],pest or weed control at 4483.4 g/ha [8] [%],pest or weed control at 4483.4 g/ha [9] [%],pest or weed control at 4483.4 g/ha [10] [%],pest or weed control at 4483.4 g/ha [11] [%],pest or weed control at 4483.4 g/ha [13] [%],pest or weed control at 4483.4 g/ha [14] [%],pest or weed control at 4483.4 g/ha [15] [%],pest or weed control at 4483.4 g/ha [16] [%],other results
CCCSc1nnc(N(C)C(=O)N(C)C)s1 [Example 66],80,100,60,100,100,100,100,100,100,50,100,50,60,100,50,100,100,100,100,100,pest or weed control at 4483.4 g/ha ([2]; 4 lb/acre): 70%; pest or weed control at 2241.7 g/ha ([5]; 2 lb/acre): 100%; pest or weed control at 2241.7 g/ha ([6]; 2 lb/acre): 100%; pest or weed control [9]: 30%; pest or weed control at 2241.7 g/ha [10]: 0%; pest or weed control [11]: 30%; pest or weed control at 2241.7 g/ha [12]: 30%; pest or weed control at 4483.4 g/ha [12]: 100%; pest or weed control [13]: 50%; pest or weed control at 2241.7 g/ha [14]: 90%; pest or weed control at 2241.7 g/ha [15]: 20%; pest or weed control at 2241.7 g/ha [16]: 100%
CNC(=O)Nc1nnc(C(F)F)s1 [Example 67],0,80,80,100,100,100,100,100,100,60,100,40,90,90,70,70,80,100,50,90,pest or weed control [9]: 80%; pest or weed control at 2241.7 g/ha [10]: 0%; pest or weed control [11]: 40%; pest or weed control at 2241.7 g/ha [12]: 50%; pest or weed control [13]: 80%; pest or weed control at 2241.7 g/ha [14]: 90%; pest or weed control at 2241.7 g/ha [15]: 40%; pest or weed control at 2241.7 g/ha [16]: 0%
CCOC(=O)C(Sc1nnc(NC(=O)NC)s1)C(=O)OCC [Example 79],,50,,,90,,40,0,40,,20,,30,20,20,40,30,60,20,90,
CNC(=O)Nc1nnc(SCC#N)s1 [Example 88],,50,,,50,,40,10,20,,70,,20,10,10,20,20,30,10,100,pest or weed control at 4483.4 g/ha [12]: 10%
